# US20090281127A1, “Organic Compounds” (priority 2006, published 2009)
# Where a name gives a salt, the structure may show the parent alone.
# Molecular target: adenosine A2a receptor (Homo sapiens, UniProt P29274)
# Test: adenosine A2a receptor agonist method of Murphree et al (Ki)
# Type: binding
# Conditions: method described by L. J. Murphree et al, Molecular Pharmacology 61, 455-462 (2002)
# Method: Compounds of formula I and their pharmaceutically acceptable salts are useful as pharmaceuticals. In particular, they activate the adenosine A2a receptor activation, i.e. they act as A2a receptor agonists.
# Compounds of the Examples hereinbelow have K; values below 1.0 μM in the above method. For example, the compounds of Examples 6, 10 and 15 have Ki values of 0.004, 0.005, and 0.009 μM respectively.
# adenosine A2a receptor, sequence (P29274 whole entry): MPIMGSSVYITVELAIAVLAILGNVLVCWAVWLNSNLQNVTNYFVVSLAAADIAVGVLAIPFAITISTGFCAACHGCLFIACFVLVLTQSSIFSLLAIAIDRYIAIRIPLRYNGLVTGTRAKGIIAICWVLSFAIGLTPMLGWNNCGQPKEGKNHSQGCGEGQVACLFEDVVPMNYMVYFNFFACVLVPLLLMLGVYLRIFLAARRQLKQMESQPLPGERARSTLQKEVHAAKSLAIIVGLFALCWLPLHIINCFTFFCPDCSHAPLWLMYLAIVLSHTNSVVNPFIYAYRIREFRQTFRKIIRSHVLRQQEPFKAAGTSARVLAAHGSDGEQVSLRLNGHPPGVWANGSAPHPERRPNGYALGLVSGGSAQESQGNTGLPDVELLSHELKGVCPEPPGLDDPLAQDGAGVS
row,Ki,Structure (SMILES)
1,4 nM,"O=C(N[C@H]1C[C@@H](n2cnc3c(NCC(c4ccccc4)c4ccccc4)nc(N[C@H]4CCNC4)nc32)[C@H](O)[C@@H]1O)C1CCC1 [Example 6, Cyclobutanecarboxylic acid {(1S,2R,3S,4R)-4-[6-(2,2-diphenyl-ethylamino)-2-((S)-pyrrolidin-3-ylamino)-purin-9-yl]-2,3-dihydroxy-cyclopentyl}-amide hydrochloride]"
2,9 nM,"O=C(N[C@H]1C[C@@H](n2cnc3c(NCC(c4ccccc4)c4ccccc4)nc(N[C@@H]4CCN(C(=O)NC5CCN(c6ccccn6)CC5)C4)nc32)[C@H](O)[C@@H]1O)C1CCC1 [Example 15, (R)-3-[9-[(1R,2S,3R,4S)-4-(cyclobutanecarbonyl-amino)-2,3-dihydroxy-cyclopentyl]-6-(2,2-diphenyl-ethylamino)-9H-purin-2-ylamino]-pyrrolidine-1-carboxylic acid (3,4,5,6-tetrahydro-2H-[1,2′]bipyridinyl-4-yl)-amide trifluoroacetate]"
3,5 nM,"O=C(Nc1cccnc1)NC1CCN(c2nc(NCC(c3ccccc3)c3ccccc3)c3ncn(C4CC(NC(=O)C5CCC5)C(O)C4O)c3n2)C1 [Example 10, Cyclobutanecarboxylic acid ((1S,2R,3S,4R)-4-{6-(2,2-diphenyl-ethylamino)-2-[(R)-3-(3-pyridin-3-yl-ureido)-pyrrolidin-1-yl]-purin-9-y}-2,3-dihydroxy-cyclopentyl)-amide]"
